Patent publication US20090209536A1, “AMINOQUINAZOLINE CANNABINOID RECEPTOR MODULATORS FOR TREATMENT OF DISEASE” (KALYPSYS, INC., priority 2007, published 2009)
Where two headings read alike, the source gives them in different places.

Tests used:
[1] = molecular target: T1, human cannabinoid receptor type 2 (Homo sapiens, UniProt P34972); test: Human CB2 Radioligand Binding Assay; conditions: membranes from stably transfected CHO CB2 cells
T1 construct: expressed in transfected cells; membrane preparation
T1 sequence (P34972 whole entry): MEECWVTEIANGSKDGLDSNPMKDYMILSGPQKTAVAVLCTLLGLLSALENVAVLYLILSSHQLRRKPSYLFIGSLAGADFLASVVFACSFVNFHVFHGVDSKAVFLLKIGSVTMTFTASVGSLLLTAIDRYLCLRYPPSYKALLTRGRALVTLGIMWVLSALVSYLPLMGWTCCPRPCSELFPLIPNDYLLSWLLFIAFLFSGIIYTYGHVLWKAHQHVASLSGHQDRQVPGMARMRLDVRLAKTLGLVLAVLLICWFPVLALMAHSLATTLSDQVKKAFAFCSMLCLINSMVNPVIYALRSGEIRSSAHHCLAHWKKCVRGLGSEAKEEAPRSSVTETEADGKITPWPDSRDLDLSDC
Method in brief: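 Test compounds (10 uM final, or dose-response) competed with [3H]CP-55,940, used at the Kd determined per membrane lot, for binding to stable human CB2-CHO membranes over 90 min at 30° C in pH 7.4 Tris/EGTA/MgCl2/BSA buffer. GF/C filtration then scintillation counting; 100 nM CP-55,940 defined 100% efficacy.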

[2] = molecular target: T2, human cannabinoid receptor type 1 (Homo sapiens, UniProt P21554); test: Human CB1 Radioligand Binding Assay (basis of selectivity, CB2 vs. CB1); conditions: CB1: HEK 293 EBNA cells expressing human CB1; CB2: CHO CB2 membranes
T2 construct: purchased Perkin Elmer RBHCB1M; host or cells: HEK 293 EBNA cells
T2 sequence (P21554 whole entry): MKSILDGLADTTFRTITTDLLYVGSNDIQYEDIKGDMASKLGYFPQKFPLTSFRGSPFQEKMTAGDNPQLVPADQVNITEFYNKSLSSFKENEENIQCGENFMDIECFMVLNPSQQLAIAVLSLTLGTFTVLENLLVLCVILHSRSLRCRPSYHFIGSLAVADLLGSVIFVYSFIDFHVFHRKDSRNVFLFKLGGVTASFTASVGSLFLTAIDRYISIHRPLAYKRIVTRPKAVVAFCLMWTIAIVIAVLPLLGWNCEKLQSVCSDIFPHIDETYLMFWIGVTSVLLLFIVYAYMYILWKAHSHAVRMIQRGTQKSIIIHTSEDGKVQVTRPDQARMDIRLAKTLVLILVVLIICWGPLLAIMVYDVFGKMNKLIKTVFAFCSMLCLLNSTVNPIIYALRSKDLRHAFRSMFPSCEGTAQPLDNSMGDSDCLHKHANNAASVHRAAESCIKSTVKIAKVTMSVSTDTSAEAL
Procedure: 2. Human CB1 Radioligand Binding Assay
The incubation buffer was composed of 50 mM Tris-HCl pH 7.4, 2.5 mM EDTA, 5 mM MgCl2, 5.0 mg/ml fatty acid free BSA and the wash buffer was composed of 50 mM Tris-HCl pH 7.4, 2.5 mM EDTA, 5 mM MgCl2, 0.5 mg/ml fatty acid free BSA.

[3] = competition with [3H] CP-55,940, read-out: CB2 Ligand Binding Asssay EC50
[4] = CB2 Ligand Binding Asssay EC50, competition with [3H] CP-55,940

Structure (SMILES) | EC50 [1, 3] [nM] | Selectivity, CB2 vs. CB1 [2] | EC50 [1, 4] [nM]
CC(C)CC(=O)N1CCN(c2nc(-c3ccccc3Cl)nc3cccc(Cl)c23)CC1 [Example 283, 1-(4-(5-Chloro-2-(2-chlorophenyl)quinazolin-4-yl)piperazin-1-yl)-3-methylbutan-1-one] | > 1000 | − (− indicates ≦ 10−fold) | 
CCCNC(=O)N1CCN(c2nc(-c3ccccc3Cl)nc3cccc(Cl)c23)CC1 [Example 284, 4-(5-Chloro-2-(2-chlorophenyl)quinazolin-4-yl)-N-propylpiperazine-1-carboxamide] | > 1000 | − (− indicates ≦ 10−fold) | 
CCCS(=O)(=O)N1CCN(c2nc(-c3ccccc3Cl)nc3cccc(Cl)c23)CC1 [Example 285, 5-Chloro-2-(2-chlorophenyl)-4-(4-(propylsulfonyl)piperazin-1-yl)quinazoline] | > 1000 | − (− indicates ≦ 10−fold) | 
CCOC(=O)N1CCN(c2nc(Nc3ccccc3)nc3cc(C(C)(C)C)ccc23)CC1 [Example 286, Ethyl 4-(7-tert-butyl-2-(phenylamino)quinazolin-4-yl)piperazine-1-carboxylate] | < 1000 | + (+ indicates > 10−fold) | 
CC(C)(C)c1ccc2c(N3CCCC3)nc(Nc3ccccc3)nc2c1 [Example 287, 7-tert-Butyl-N-phenyl-4-(pyrrolidin-1-yl)quinazolin-2-amine] | < 1000 | + (+ indicates > 10−fold) | 
CC(C)(C)c1ccc2c(N3CCCC3)nc(Nc3ccc(F)cc3F)nc2c1 [Example 288, 7-tert-Butyl-N-(2,4-difluorophenyl)-4-(pyrrolidin-1-yl)quinazolin-2-amine] | < 1000 | + (+ indicates > 10−fold) | 
CC(C)(C)c1ccc2c(N3CCCC3)nc(Nc3ccc(F)c(F)c3)nc2c1 [Example 289, 7-tert-Butyl-N-(3,4-difluorophenyl)-4-(pyrrolidin-1-yl)quinazolin-2-amine] | < 1000 | − (− indicates ≦ 10−fold) | 
CC(C)(C)c1ccc2c(N3CCCC3)nc(Nc3cccc(Cl)c3)nc2c1 [Example 290, 7-tert-Butyl-N-(3-chlorophenyl)-4-(pyrrolidin-1-yl)quinazolin-2-amine] | < 1000 | + (+ indicates > 10−fold) | 
O=S(=O)(NCc1nc(N2CCOCC2)c2ccccc2n1)c1ccc(Cl)cc1Cl [Example 294, 2,4-Dichloro-N-((4-morpholinoquinazolin-2-yl)methyl)benzenesulfonamide] | > 1000 | − (− indicates ≦ 10−fold) | 
COc1cc2nc(Oc3ccc(C(C)(C)C)cc3)nc(N3CCCC3)c2cc1OC [Example 296, 2-(4-tert-Butylphenoxy)-6,7-dimethoxy-4-(pyrrolidin-1-yl)quinazoline] | > 1000 | − (− indicates ≦ 10−fold) | 
COc1ccc(Oc2nc(N3CCCC3)c3cc(OC)c(OC)cc3n2)cc1 [Example 297, 6,7-Dimethoxy-2-(4-methoxyphenoxy)-4-(pyrrolidin-1-yl)quinazoline] | > 1000 | − (− indicates ≦ 10−fold) | 
COc1cc2nc(Nc3ccc(C(C)(C)C)cc3)nc(N3CCCC3)c2cc1OC [Example 298, N-(4-tert-butylphenyl)-6,7-dimethoxy-4-(pyrrolidin-1-yl)quinazolin-2-amine] | > 1000 | − (− indicates ≦ 10−fold) | 
O=S(=O)(NCc1nc(N2CCCC2)c2ccccc2n1)c1ccc2ccccc2c1 [Example 299, N-((4-(Pyrrolidin-1-yl)quinazolin-2-yl)methyl)naphthalene-2-sulfonamide] | > 1000 | + (+ indicates > 10−fold) | 
O=S(=O)(NCc1nc(N2CCOCC2)c2ccccc2n1)c1cccc2ccccc12 [Example 300, N-((4-Morpholinoquinazolin-2-yl)methyl)naphthalene-1-sulfonamide] | < 1000 | + (+ indicates > 10−fold) | 
O=S(=O)(NCc1nc(N2CCOCC2)c2ccccc2n1)c1ccc2ccccc2c1 [Example 301, N-((4-Morpholinoquinazolin-2-yl)methyl)naphthalene-2-sulfonamide] |  | − (− indicates ≦ 10−fold) | > 1000
O=S(=O)(NCc1nc(Nc2ccccc2)c2ccccc2n1)c1cccc2ccccc12 [Example 302, N-((4-(Phenylamino)quinazolin-2-yl)methyl)naphthalene-1-sulfonamide] | > 1000 | − (− indicates ≦ 10−fold) | 

Structure (SMILES) | EC50 [1, 3] [nM] | Selectivity, CB2 vs. CB1 [2] | EC50 [1, 4] [nM]
c1ccc(NCc2nc(Nc3ccccc3)c3ccccc3n2)cc1 [Example 303, N-Phenyl-2-((phenylamino)methyl)quinazolin-4-amine] | > 1000 | − (− indicates ≦ 10−fold) | 
CC(C)Nc1nc(CNS(=O)(=O)c2cccc3ccccc23)nc2ccccc12 [Example 304, N-((4-(Isopropylamino)quinazolin-2-yl)methyl)naphthalene-1-sulfonamide] | < 1000 | − (− indicates ≦ 10−fold) | 
O=S(=O)(NCc1nc(NC2CCCC2)c2ccccc2n1)c1cccc2ccccc12 [Example 305, N-((4-(Cyclopentylamino)quinazolin-2-yl)methyl)naphthalene-1-sulfonamide] | < 1000 | − (− indicates ≦ 10−fold) | 
COc1cc2nc(CNS(=O)(=O)c3cccc4ccccc34)nc(N3CCCC3)c2cc1OC [Example 307, N-((6,7-Dimethoxy-4-(pyrrolidin-1-yl)quinazolin-2-yl)methyl)naphthalene-1-sulfonamide] | < 1000 | − (− indicates ≦ 10−fold) | 
O=S(=O)(NCc1nc(N2Cc3ccccc3C2)c2ccccc2n1)c1cccc2ccccc12 [Example 308, N-((4-(isoindolin-2-yl)quinazolin-2-yl)methyl)naphthalene-1-sulfonamide] | < 1000 | − (− indicates ≦ 10−fold) | 
O=S(=O)(NCc1nc(N2CCCC2)c2ccc(Cl)cc2n1)c1cccc2ccccc12 [Example 309, N-((7-Chloro-4-(pyrrolidin-1-yl)quinazolin-2-yl)methyl)naphthalene-1-sulfonamide] | < 1000 | + (+ indicates > 10−fold) | 
COC(=O)c1ccc2nc(-c3ccccc3Cl)nc(N3CCN(C)CC3)c2c1 [Example 310, Methyl 2-(2-chlorophenyl)-4-(4-methylpiperazin-1-yl)quinazoline-6-carboxylate] | < 1000 | − (− indicates ≦ 10−fold) | 
CCN(CC)C(=O)c1ccc2nc(-c3ccccc3Cl)nc(N3CCN(C)CC3)c2c1 [Example 311, 2-(2-Chlorophenyl)-N,N-diethyl-4-(4-methylpiperazin-1-yl)quinazoline-6-carboxamide] | < 1000 | + (+ indicates > 10−fold) | 
CC1CCN(c2nc(-c3ccccc3Cl)nc3ccc(C(=O)NC4CCCCC4)cc23)CC1 [Example 312, 2-(2-Chlorophenyl)-N-cyclohexyl-4-(4-methylpiperidin-1-yl)quinazoline-6-carboxamide] | < 1000 | − (− indicates ≦ 10−fold) | 
COc1ccc(CNC(=O)c2ccc3nc(-c4ccccc4Cl)nc(N4CCC(C)CC4)c3c2)cc1 [Example 313, 2-(2-Chlorophenyl)-N-(4-methoxybenzyl)-4-(4-methylpiperidin-1-yl)quinazoline-6-carboxamide] | < 1000 | − (− indicates ≦ 10−fold) | 
CCOC(=O)N1CCN(c2nc(-c3ccccc3Cl)nc3ccc(C(=O)N(CC)CC)cc23)CC1 [Example 314, Ethyl 4-(2-(2-chlorophenyl)-6-(diethylcarbamoyl)quinazolin-4-yl)piperazine-1-carboxylate] | > 1000 | + (+ indicates > 10−fold) | 
CCN(CC)C(=O)c1ccc2nc(-c3ccccc3Cl)nc(N3CCOCC3)c2c1 [Example 315, 2-(2-Chlorophenyl)-N,N-diethyl-4-morpholinoquinazoline-6-carboxamide] |  | − (− indicates ≦ 10−fold) | > 1000
CCN(CC)C(=O)c1ccc2nc(-c3ccccc3Cl)nc(N3CCN(C(C)=O)CC3)c2c1 [Example 316, 4-(4-Acetylpiperazin-1-yl)-2-(2-chlorophenyl)-N,N-diethylquinazoline-6-carboxamide] | < 1000 | + (+ indicates > 10−fold) | 
CCOC(=O)N1CCN(c2nc(-c3ccccc3Cl)nc3cc(C(=O)OC)ccc23)CC1 [Example 317, Methyl 2-(2-chlorophenyl)-4-(4-(ethoxycarbonyl)piperazin-1-yl)quinazoline-7-carboxylate] | > 1000 | − (− indicates ≦ 10−fold) | 
CCOC(=O)N1CCN(c2nc(-c3ccccc3Cl)nc3cc(C(=O)O)ccc23)CC1 [Example 318, 2-(2-Chlorophenyl)-4-(4-(ethoxycarbonyl)piperazin-1-yl)quinazoline-7-carboxylic acid] | > 1000 | − (− indicates ≦ 10−fold) | 
CCOC(=O)N1CCN(c2nc(-c3ccccc3Cl)nc3cc(C(=O)NC(C)C)ccc23)CC1 [Example 320, Ethyl 4-(2-(2-chlorophenyl)-7-(isopropylcarbamoyl)quinazolin-4-yl)piperazine-1-carboxylate] | > 1000 | − (− indicates ≦ 10−fold) | 
